Data taken from PMC11743598, “Identification of a binding site for small molecule inhibitors targeting human TRPM4” (Nature Communications, 2025).

Target: T1, HsTRPM4 (Homo sapiens, UniProt Q8TD43)
T1 construct: gene TRPM4; full-length, wild-type codon-optimized gene, C-terminal HA and FLAG tags, pcDNA3.1; patch clamp in transiently transfected cells (TsA-201); cryo-EM from HEK293F, SMA native nanodiscs, C4 symmetry (homotetramer)
Assay: cryo-EM structure, […] A
Assay type: binding
Conditions: endogenous lipid assigned from density, three sites per protomer, SMA native nanodiscs

T1 sequence (Q8TD43 whole entry): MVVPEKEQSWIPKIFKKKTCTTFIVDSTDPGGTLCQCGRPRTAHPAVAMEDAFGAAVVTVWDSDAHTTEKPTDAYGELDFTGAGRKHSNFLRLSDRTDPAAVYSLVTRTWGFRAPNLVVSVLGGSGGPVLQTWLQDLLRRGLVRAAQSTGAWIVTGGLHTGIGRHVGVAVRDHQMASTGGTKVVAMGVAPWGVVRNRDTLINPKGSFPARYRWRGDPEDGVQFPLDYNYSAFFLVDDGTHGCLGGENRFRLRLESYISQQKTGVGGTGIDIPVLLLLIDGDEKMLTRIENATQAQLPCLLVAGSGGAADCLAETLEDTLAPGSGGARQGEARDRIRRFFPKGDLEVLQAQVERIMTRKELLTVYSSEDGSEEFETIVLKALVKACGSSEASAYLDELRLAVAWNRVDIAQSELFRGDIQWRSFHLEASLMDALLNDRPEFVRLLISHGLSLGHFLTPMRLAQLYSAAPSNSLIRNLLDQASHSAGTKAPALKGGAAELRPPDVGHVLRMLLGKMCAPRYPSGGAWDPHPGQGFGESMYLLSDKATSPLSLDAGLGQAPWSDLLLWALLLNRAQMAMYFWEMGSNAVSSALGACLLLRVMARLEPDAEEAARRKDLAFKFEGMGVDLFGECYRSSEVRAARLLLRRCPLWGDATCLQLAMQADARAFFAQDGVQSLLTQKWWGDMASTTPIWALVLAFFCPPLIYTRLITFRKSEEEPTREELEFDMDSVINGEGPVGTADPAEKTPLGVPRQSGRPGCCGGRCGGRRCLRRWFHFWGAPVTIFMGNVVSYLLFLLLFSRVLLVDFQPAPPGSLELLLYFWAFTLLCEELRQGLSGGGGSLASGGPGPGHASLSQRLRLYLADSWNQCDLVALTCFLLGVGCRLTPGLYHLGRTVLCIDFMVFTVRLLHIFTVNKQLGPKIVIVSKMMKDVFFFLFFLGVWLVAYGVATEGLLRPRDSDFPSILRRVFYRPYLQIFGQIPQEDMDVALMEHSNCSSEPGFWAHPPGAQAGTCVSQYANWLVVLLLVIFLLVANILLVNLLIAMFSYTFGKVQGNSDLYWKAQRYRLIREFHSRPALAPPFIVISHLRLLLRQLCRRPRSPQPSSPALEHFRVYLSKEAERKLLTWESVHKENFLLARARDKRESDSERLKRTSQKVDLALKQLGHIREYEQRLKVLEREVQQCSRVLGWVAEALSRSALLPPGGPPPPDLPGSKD

SMILES: CC(C)CCC[C@@H](C)[C@H]1CC[C@H]2[C@@H]3CC=C4C[C@@H](O)CC[C@]4(C)[C@H]3CC[C@]12C [cholesterol]
- cryo-EM structure, 3.67 A: primarily three densities for cholesterol molecules bound to TRPM4 observed
